According to paper PMC9814779, “A triple farnesoid X receptor and peroxisome proliferator-activated receptor α/δ activator reverses hepatic fibrosis in diet-induced NASH in mice” (Communications Chemistry, 2020):

System: PPARδ-regulated genes in C2C12 cells
Experiment: PPARδ-regulated gene expression in differentiated C2C12 cells (qRT-PCR)
Assay type: cell-based, murine
Conditions: C2C12 myotubes, 1 μM, 8 h
Description: HepG2 cells (DSMZ) were grown in DMEM high glucose, supplemented with 10% FCS, 1 mM SP, penicillin (100 U/mL), and streptomycin (100 μg/mL) at 37 °C and 5% CO2 and seeded in 6-well plates (2 × 10^6 per well). After 24 h, medium was changed to Minimal Essential Medium supplemented with 1% charcoal-stripped FCS, penicillin (100 U/mL), streptomycin (100 μg/mL), and 2 mM L-glutamine. After an additional 24 h, cells were incubated with test compound 41 (0.1 µM, 0.3 µM, 1 μM), OCA (1 μM), or elafibranor (1 µM) dissolved in the same medium with 0.1% DMSO or medium with 0.1% DMSO alone as untreated control for 12 h, harvested, washed with cold phosphate-buffered saline (PBS), and then directly used for RNA extraction. C2C12 cells (American Type Culture Collection, ATCC) were grown in DMEM high glucose, supplemented with 10% FCS, 1 mM SP, penicillin (100 U/mL), and streptomycin (100 μg/mL) at 37 °C and 5% CO2 and seeded in 6-well plates (1 × 10^6 per well). […] FXR- and PPAR-regulated gene expression was then studied by quantitative real-time PCR (qRT-PCR) analysis with a StepOnePlus System (Life Technologies, Carlsbad, CA, USA) using PowerSYBRGreen (Life Technologies; 12.5 μL per well). […] Data were analyzed by the comparative ΔΔCT method with glyceraldehyde 3-phosphate dehydrogenase (GAPDH) as reference gene. […]

**Q.** With `CC(C)(C)c1ccc(C(=O)Nc2cccc(CCC(=O)O)c2)c(NC(=O)c2ccc(-c3ccco3)cc2)c1` [compound 41, 3-(3-[4-{tert-Butyl}-2-{4-(2-furyl)}benzamido]phenyl)propanoic acid] as the molecule, how does the “upregulation of PCK and GLUT3 mRNA” value read?
**A.** comparable efficacy as the selective PPARδ agonist L165,041

**Q.** What about the “effect on LPL expression” value (compared with L165,041) of the same molecule?
**A.** less pronounced
